From ChEMBL document CHEMBL5390204, “Persephacin Is a Broad-Spectrum Antifungal Aureobasidin Metabolite That Overcomes Intrinsic Resistance in Aspergillus fumigatus” (J Nat Prod, 2023)
≈ marks a conversion by molar mass, not a printed value.

Experiments:
Assay type in all cases: functional
[1] = test system: Candida parapsilosis; test: Antifungal activity against Candida parapsilosis 15 assessed as inhibition in fungal growth incubated for 48 hrs by microplate reader analysis; details: Lodderomyces parapsilosis
[2] = test system: Nakaseomyces glabratus; test: Antifungal activity against Candida glabrata 4 assessed as inhibition in fungal growth incubated for 48 hrs by microplate reader analysis
[3] = test system: Clavispora lusitaniae; test: Antifungal activity against multidrug-resistant Candida lusitaniae 398 assessed as inhibition in fungal growth incubated for 48 hrs by microplate reader analysis
[4] = test system: Aspergillus niger; test: Antifungal activity against Aspergillus niger FGSC A732 assessed as reduction in fungal growth incubated for 48 hrs by microplate reader analysis
[5] = test system: [Candida] auris; test: Antifungal activity against multidrug-resistant Candida auris 383 assessed as inhibition in fungal growth incubated for 48 hrs by microplate reader analysis; details: Candidozyma auris
[6] = test system: Rhizopus arrhizus; test: Antifungal activity against Rhizopus oryzae FGSC 9543 assessed as reduction in fungal viability incubated for 48 hrs by microplate reader analysis
[7] = test system: [Candida] auris; test: Antifungal activity against multidrug-resistant Candida auris 381 assessed as inhibition in fungal growth incubated for 48 hrs in presence of 0% serum by microplate reader analysis; details: Candidozyma auris
[8] = test system: Candida albicans; test: Antifungal activity against Candida albicans 10 assessed as inhibition in fungal growth incubated for 48 hrs by microplate reader analysis
[9] = test system: Candida albicans; test: Antifungal activity against Candida albicans SC5314 assessed as inhibition in fungal growth incubated for 48 hrs in presence of 5% serum by microplate reader analysis
[10] = test system: Pichia kudriavzevii; test: Antifungal activity against Candida krusei ATCC 6258 (Y-7179) assessed as reduction in fungal growth incubated for 48 hrs by microplate reader analysis
[11] = test system: Nakaseomyces glabratus; test: Antifungal activity against Candida glabrata 2 assessed as inhibition in fungal growth incubated for 48 hrs by microplate reader analysis
[12] = test system: [Candida] auris; test: Antifungal activity against multidrug-resistant Candida auris 381 assessed as inhibition in fungal growth incubated for 48 hrs in presence of 5% serum by microplate reader analysis; details: Candidozyma auris
[13] = test system: Candida albicans; test: Antifungal activity against Candida albicans 21 assessed as inhibition in fungal growth incubated for 48 hrs by microplate reader analysis
[14] = test system: Candida albicans; test: Antifungal activity against Candida albicans SC5314 assessed as reduction in fungal growth incubated for 48 hrs by microplate reader analysis
[15] = test system: Candida albicans; test: Antifungal activity against Candida albicans SC5314 assessed as inhibition in fungal growth incubated for 48 hrs in presence of 0% serum by microplate reader analysis
[16] = test system: Candida albicans; test: Antifungal activity against Candida albicans 8 assessed as inhibition in fungal growth incubated for 48 hrs by microplate reader analysis
[17] = test system: [Candida] auris; test: Antifungal activity against multidrug-resistant Candida auris 385 assessed as inhibition in fungal growth incubated for 48 hrs by microplate reader analysis; details: Candidozyma auris
[18] = test system: Candida parapsilosis; test: Antifungal activity against Candida parapsilosis 18 assessed as inhibition in fungal growth incubated for 48 hrs by microplate reader analysis; details: Lodderomyces parapsilosis
[19] = test system: Candida albicans; test: Antifungal activity against Candida albicans 14 assessed as inhibition in fungal growth incubated for 48 hrs by microplate reader analysis
[20] = test system: Nakaseomyces glabratus; test: Antifungal activity against Candida glabrata 17 assessed as inhibition in fungal growth incubated for 48 hrs by microplate reader analysis
[21] = test system: Curvularia lunata; test: Antifungal activity against Curvularia lunata NRRL6409 assessed as reduction in fungal growth incubated for 48 hrs by microplate reader analysis
[22] = test system: Candida tropicalis; test: Antifungal activity against Candida tropicalis ATCC750 (Y-12699) assessed as reduction in fungal growth incubated for 48 hrs by microplate reader analysis
[23] = test system: [Candida] auris; test: Antifungal activity against multidrug-resistant Candida auris 387 assessed as inhibition in fungal growth incubated for 48 hrs by microplate reader analysis; details: Candidozyma auris
[24] = test system: Mucor circinelloides; test: Antifungal activity against Mucor circinelloides 235C7 assessed as reduction in fungal growth incubated for 48 hrs by microplate reader analysis
[25] = test system: Candida tropicalis; test: Antifungal activity against Candida tropicalis 13 assessed as inhibition in fungal growth incubated for 48 hrs by microplate reader analysis
[26] = test system: Aspergillus fumigatus; test: Antifungal activity against Aspergillus fumigatus MYA 3627 assessed as reduction in fungal growth incubated for 48 hrs by microplate reader analysis
[27] = test system: Candida parapsilosis; test: Antifungal activity against Candida parapsilosis 23 assessed as inhibition in fungal growth incubated for 48 hrs by microplate reader analysis; details: Lodderomyces parapsilosis
[28] = test system: Fusarium solani; test: Antifungal activity against Fusarium solani 243G2 assessed as reduction in fungal growth incubated for 48 hrs by microplate reader analysis
[29] = test system: Aspergillus terreus; test: Antifungal activity against Aspergillus terreus 191A6 assessed as reduction in fungal growth incubated for 48 hrs by microplate reader analysis
[30] = test system: Rhizopus arrhizus; test: Antifungal activity against Rhizopus oryzae FGSC 9543 assessed as reduction in fungal growth incubated for 48 hrs by microplate reader analysis
[31] = test system: Aspergillus fumigatus; test: Antifungal activity against Aspergillus fumigatus ATCC MYA-3627 assessed as inhibition in fungal growth incubated for 48 hrs in presence of 0% serum by microplate reader analysis
[32] = test system: Cryptococcus neoformans; test: Antifungal activity against Cryptococcus neoformans H99 assessed as inhibition in fungal growth incubated for 48 hrs in presence of 5% serum by microplate reader analysis
[33] = test system: Candida albicans; test: Antifungal activity against Candida albicans 5 assessed as inhibition in fungal growth incubated for 48 hrs by microplate reader analysis
[34] = test system: Nakaseomyces glabratus; test: Antifungal activity against Candida glabrata 11 assessed as inhibition in fungal growth incubated for 48 hrs by microplate reader analysis
[35] = test system: Curvularia lunata; test: Antifungal activity against Curvularia lunata NRRL6409 assessed as reduction in fungal viability incubated for 48 hrs by microplate reader analysis
[36] = test system: Candida albicans; test: Antifungal activity against Candida albicans 1 assessed as inhibition in fungal growth incubated for 48 hrs by microplate reader analysis
[37] = test system: Aspergillus niger; test: Antifungal activity against Aspergillus niger FGSC A732 assessed as reduction in fungal viability incubated for 48 hrs by microplate reader analysis
[38] = test system: Kodamaea ohmeri; test: Antifungal activity against multidrug-resistant Kodamaea ohmeri 396 assessed as inhibition in fungal growth incubated for 48 hrs by microplate reader analysis
[39] = test system: Aspergillus terreus; test: Antifungal activity against Aspergillus terreus 191A6 assessed as reduction in fungal viability incubated for 48 hrs by microplate reader analysis
[40] = test system: Pichia kudriavzevii; test: Antifungal activity against Candida krusei 25 assessed as inhibition in fungal growth incubated for 48 hrs by microplate reader analysis
[41] = test system: Candida duobushaemulonii; test: Antifungal activity against multidrug-resistant Candida duobushaemulonii 392 assessed as inhibition in fungal growth incubated for 48 hrs by microplate reader analysis; details: Candidozyma duobushaemuli
[42] = test system: Mucor circinelloides; test: Antifungal activity against Mucor circinelloides 235C7 assessed as reduction in fungal viability incubated for 48 hrs by microplate reader analysis
[43] = test system: Fusarium solani; test: Antifungal activity against Fusarium solani 243G2 assessed as reduction in fungal viability incubated for 48 hrs by microplate reader analysis
[44] = test system: Saccharomyces cerevisiae; test: Antifungal activity against multidrug-resistant Saccharomyces cerevisiae 400 assessed as inhibition in fungal growth incubated for 48 hrs by microplate reader analysis

## C[C@@H]1[C@H](O)[C@@H](C)/C=C/C=C/C=C/C=C/C=C/C=C/C=C/[C@H](O[C@@H]2O[C@H](C)[C@@H](O)[C@H](N)[C@@H]2O)C[C@@H]2O[C@](O)(C[C@@H](O)C[C@@H](O)[C@H](O)CC[C@@H](O)C[C@@H](O)CC(=O)O[C@H]1C)C[C@H](O)[C@H]2C(=O)O [AMPHOTERICIN B]
[1]
  MIC80: 2.5 µM (≈ 2.31 µg/mL)
[2]
  MIC80: 1.3 µM (≈ 1.2 µg/mL)
[3]
  MIC80: 0.6 µM (≈ 0.554 µg/mL)
[4]
  MFC: 2.5 µM (≈ 2.31 µg/mL)
  MIC80: 0.6 µM (≈ 0.554 µg/mL)
[5]
  MIC80: 2.5 µM (≈ 2.31 µg/mL)
[6]
  MFC<=99.9: 0.3 µM (≈ 0.277 µg/mL)
[7]
  MIC80: 2.5 µM
[8]
  MIC80: 0.6 µM (≈ 0.554 µg/mL)
[9]
  MIC80: < 0.2 µM
[10]
  MFC: 5 µM (≈ 4.62 µg/mL)
  MIC80: 2.5 µM (≈ 2.31 µg/mL)
[11]
  MIC80: 0.3 µM (≈ 0.277 µg/mL)
[12]
  MIC80: < 0.2 µM
[13]
  MIC80: 0.6 µM (≈ 0.554 µg/mL)
[14]
  MFC: 2.5 µM (≈ 2.31 µg/mL)
  MIC80: 0.6 µM (≈ 0.554 µg/mL)
[15]
  MIC80: 0.6 µM
[16]
  MIC80: 0.6 µM (≈ 0.554 µg/mL)
[17]
  MIC80: 2.5 µM (≈ 2.31 µg/mL)
[18]
  MIC80: 1.3 µM (≈ 1.2 µg/mL)
[19]
  MIC80: 1.3 µM (≈ 1.2 µg/mL)
[20]
  MIC80: 0.3 µM (≈ 0.277 µg/mL)
[21]
  MFC: 2.5 µM (≈ 2.31 µg/mL)
  MIC80: 0.3 µM (≈ 0.277 µg/mL)
[22]
  MFC: 2.5 µM (≈ 2.31 µg/mL)
  MIC80: 1.3 µM (≈ 1.2 µg/mL)
[23]
  MIC80: 2.5 µM (≈ 2.31 µg/mL)
[24]
  MFC: 1.3 µM (≈ 1.2 µg/mL)
  MIC80: 1.3 µM (≈ 1.2 µg/mL)
[25]
  MIC80: 0.2 µM (≈ 0.185 µg/mL)
[26]
  MFC: 2.5 µM (≈ 2.31 µg/mL)
  MIC80: 2.5 µM (≈ 2.31 µg/mL)
[27]
  MIC80: 1.3 µM (≈ 1.2 µg/mL)
[28]
  MFC: 1.3 µM (≈ 1.2 µg/mL)
  MIC80: 1.3 µM (≈ 1.2 µg/mL)
[29]
  MFC: 10 µM (≈ 9.24 µg/mL)
  MIC80: 2.5 µM (≈ 2.31 µg/mL)
[30]
  MFC: 0.3 µM (≈ 0.277 µg/mL)
  MIC80: 0.3 µM (≈ 0.277 µg/mL)
[31]
  MIC80: 2.5 µM
[32]
  MIC80: < 0.2 µM
[33]
  MIC80: 0.6 µM (≈ 0.554 µg/mL)
[34]
  MIC80: 0.3 µM (≈ 0.277 µg/mL)
[35]
  MFC<=99.9: 2.5 µM (≈ 2.31 µg/mL)
[36]
  MIC80: 0.6 µM (≈ 0.554 µg/mL)
[37]
  MFC<=99.9: 2.5 µM (≈ 2.31 µg/mL)
[38]
  MIC80: 1.3 µM (≈ 1.2 µg/mL)
[39]
  MFC<=99.9: 10 µM (≈ 9.24 µg/mL)
[40]
  MIC80: 1.3 µM (≈ 1.2 µg/mL)
[41]
  MIC80: 5 µM (≈ 4.62 µg/mL)
[42]
  MFC<=99.9: 1.3 µM (≈ 1.2 µg/mL)
[43]
  MFC<=99.9: 1.3 µM (≈ 1.2 µg/mL)
[44]
  MIC80: 1.3 µM (≈ 1.2 µg/mL)
